Values quoted from earlier work in US6811967B2 (The University of Manitoba, priority 2001, dated 2004).

Tests used:
human SSAT = target: T1, human SSAT (Homo sapiens, UniProt P21673); settings: human SSAT expressed in E. coli (Parry et al. 1995)
T1 construct: host or cells: E. coli

[1] = weak base, primary amine
[2] = Sprague-Dawley rats, same therapeutic dose (Goralski et al. 1999)

T1 sequence (P21673 whole entry): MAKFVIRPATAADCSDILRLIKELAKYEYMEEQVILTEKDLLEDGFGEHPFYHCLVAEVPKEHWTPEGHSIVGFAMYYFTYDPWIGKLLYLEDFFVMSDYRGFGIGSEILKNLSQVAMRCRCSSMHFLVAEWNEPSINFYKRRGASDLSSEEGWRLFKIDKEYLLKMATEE

Row | Structure (SMILES) | acetylation by SSAT (human SSAT) | pKa [1] | urinary excretion of acetylamantadine [2]
1 | CCCCNCCCN [N-(n-butyl)-1,3-diaminopropane] | acetylated by SSAT | – | –
2 | NC12CC3CC(CC(C3)C1)C2 [amantadine, 1-adamantanamine] | – | 10.1 | did not excrete acetylamantadine
3 | NCCCNCCS [WR1065, S-2-(3-aminopropylamino) ethanethiol] | acetylated by SSAT | – | –
4 | N=C(N)NCCCCCCC(=O)NC(O)C(=O)NCCCCNCCCN (centres unmarked) [1-deoxyspergualin] | acetylated by SSAT | – | –
